The values below come from patent publication US4000297A, “N-p-chlorobenzoyl tryptophane, salts and compositions thereof” (priority 1971, dated 1976).

A short description of series [1]: Acute toxicity (DL50) in the mouse. Format: in vivo. As to conditions: in vivo. From the text:
*1 DL50 in the mouse mg/kg iv.
Examples of differences between toxicity (DL50 in
the mouse) by intravenous administration and oral
administration in mg/kg. Variation in therapeutic

Series [2] deals with gastric secretion. As to the kind of experiment: Anti-secretive activity in the rat with lig. pylorus, iv. Format: in vivo. Conditions: for Therapeutic coefficient iv. 2/3: DL50 iv / ED50 iv (Table 2).
The subject of series [3] is gastric secretion. As to the kind of experiment: Anti-secretive activity in the rat by gastric stimulus, oral. In kind it is in vivo. Conditions: oral (Table 1), read-out: Activity B: anti-secretive activity ED50.
Procedure: *3 Anti-secretive activity in the rat by gastric stimulus, ED50 mg/k
In series [4] the test system is gastric secretion. As to the kind of experiment: Anti-secretive activity, oral (comparison of iv and oral therapeutic coefficient). Format: in vivo. Conditions: oral (Table 2). From the text: | *6 Anti-secretive activity ED50 oral | *7 Therapeutic coefficient oral
For series [5], the system named is transit through the stomach and intestine. Briefly: Anti-spastic activity, vegetable carbon (charcoal) test, rate of transit through the stomach and intestine. Conditions: for ED50: Mus musculus, 2 h; for Ratio 3/2: anti-secretive ED50 / anti-spastic ED50 (Table 3); for Antispastic activity ED50: 120 min. In kind it is in vivo, mice. The method, then: Particularly marked is the anti-spastic activity which the present compounds exercise on the entire digestive system. Measured in the mouse, using the vegetable carbon test (rate of transit through the stomach and intestine), this activity is in some cases comparatively greater than the anti-secretive activity (Table 3).
(*)The antispastic activity is measured in mice of an average weight of […]
± 3 g by administering a suspension of charcoal in gum arabic and
checking after two hours whether the charcoal has reached the initial
portion of the colon. In non-treated subjects the charcoal reaches this
transit of the charcoal. Evaluation of the results is effected as
ED50 in mg/kg body weight of the animal, i.e., the dose at which the […]

For series [6], the system named is gastric secretion. Briefly: Comparison of antisecretive activity, rats with tied pylorus, oral aqueous suspension. Format: in vivo. Conditions: for ED50: Rattus norvegicus, po, read-out: Antisecretive activity (dose which reduces the gastric secretion by 50%). On the procedure: (*)The antisecretive activity is defined as the dose in mg/kg of body
weight of the animal, which reduces the gastric secretion by 50%. The
evaluation is effected by considering the decrease in quantity of secrete
gastric juice as compared with controls. Rats of an average weight of 200
± 20 grams are employed of which the lower part of the stomach at the
level of the pylorus is tied to collect the gastric juice during the
indicated periods. The preparations are administered orally in the form o

The subject of series [7] is gastric lesions from Indomethacin. Briefly: Protective activity against gastric lesions due to Indomethacin. Format: in vivo, rats. Conditions: for ED50: Rattus norvegicus, po, 4 h, read-out: Protective activity ED50; for Protective activity ED50: 240 min. On the procedure:
The activity is defined as the dose in mg/kg of body weight to the animal, which prevents in 50% of the treated subjects arising of lesions due to Indomenthacin.
The protective preparations are administered orally in aqueous suspension.

The nature of series [8]: Solubility. Format: physicochemical. Conditions: for Solubility in water: in words.
Where [9] appears, read: iv, iv (Table 1), read-out: DL50 value.
Where [10] appears, read: Rattus norvegicus, iv, read-out: Activity A: anti-secretive activity ED50.
The mark [11] stands for this setting: Rattus norvegicus, iv, read-out: Anti-secretive activity ED50 i.v.
[12] abbreviates: po, charcoal after two hours, orally (later Table 3), read-out: Antispastic activity ED50.
Where [13] appears, read: oral, Indomethacin 16 mg/kg orally.
Setting [14] is: Rattus norvegicus, iv, read-out: Anti-secretive activity ED50.
Setting [15] is: mouse, vegetable carbon test (Table 3), read-out: Anti-spastic activity ED50.
The mark [16] stands for this setting: charcoal after two hours, orally (later Table 3).

SMILES strings stand for the structures. Structures can show the parent of a compound that is named as a salt. Where two headings read alike, the source gives them in different places.

On to `O=C(N[C@@H](Cc1c[nH]c2ccccc12)C(=O)O)OCc1ccc(Br)cc1` [Ex. 6 (CR451), N-p-bromo-carbobenzoxy-L-tryptophane], for which the LD50 is 125 mg/kg in series [1] (setting [9]) and 185 mg/kg in series [1] (iv, iv (Table 2), read-out: DL50 iv). The ED50 in series [2] (setting [10]) was 92.1 mg/kg; in series [2] (setting [11]), 99 mg/kg; in series [3], 77 mg/kg; in series [4], 133 mg/kg; in series [5] (setting [12]) it was 275 mg/kg; in series [6] (2.5 h, oral, 2.5 hrs) it was 180 mg/kg. Also, the ED50 in series [6] (5 h, oral, 5 hrs) was found to be 148 mg/kg; in series [6] (15 h, oral, 15 hrs), 405 mg/kg; in series [7] (setting [13]), 335 mg/kg. For the same compound, the “Therapeutic coefficient iv. 2/3” value in series [2] (iv) was 1.9. The “Antisecretive activity (dose which reduces the gastric secretion by 50%)” value in series [6] (oral, 10 hrs, listed as CR 451 (Ex. 6), 600 min) is given as 133 mg/kg.

On to `O=C(N[C@@H](Cc1c[nH]c2ccccc12)C(=O)[O-])c1ccc(Cl)cc1.[Na+]`, for which the ED50 in series [5] (ip, read-out: Antispastic activity ED50) came to 82 mg/kg; in series [5] (po, read-out: Antispastic activity ED50), 192 mg/kg; in series [6] (2.5 h) it was 118 mg/kg; in series [6] (5 h) it was 141 mg/kg; in series [6] (10 h), 147 mg/kg; in series [6] (15 h) it was 410 mg/kg. The ED50 in series [7] is 210 mg/kg. In addition, the Solubility in acetone result in series [8] (acetone) is given as “Highly soluble”. In addition, the Solubility in ethanol entry in series [8] was “Highly soluble”. Also, in series [8], the Solubility in methanol entry was “Highly soluble”. The solubility (usually how much of the substance goes into solution per volume) in series [8] (water) was approximately 50 mg/mL.

On to `Cc1ccc(C(=O)N[C@@H](Cc2c[nH]c3ccccc23)C(=O)O)cc1` [Ex.21 (CR510), N-p-toluyl-L-tryptophane], for which the LD50 in series [1] (iv (Table 1), read-out: DL50 value) turned out to be 700 mg/kg; in series [1] (oral (Table 2), read-out: DL50 oral), 2000 mg/kg. Besides, the ED50 in series [2] (setting [10]) came out at 184 mg/kg; in series [2] (setting [11]), 184 mg/kg; in series [3], 318 mg/kg; in series [4] it was 346 mg/kg; in series [5] (setting [12]), 487 mg/kg; in series [6] (2.5 h, oral, 2.5 hrs), 490 mg/kg. Besides, the ED50 in series [6] (5 h, oral, 5 hrs) was 407 mg/kg; in series [6] (10 h, oral, 10 hrs), 346 mg/kg; in series [6] (15 h, oral, 15 hrs), 583 mg/kg; in series [7] (setting [13]), 382 mg/kg. Further, the “Therapeutic coefficient iv. 2/3” value in series [2] (iv) was determined as 3.8. In addition, in series [4], the Therapeutic coefficient oral was 5.8.

With `Cc1ccc(COC(=O)N[C@@H](Cc2c[nH]c3ccccc23)C(=O)O)cc1` [Ex. 9 (CR454), N-p-methyl-carbobenzoxy-L-tryptophane], the LD50 in series [1] (setting [9]) amounted to 320 mg/kg. Moreover, the ED50 in series [2] (setting [10]) was determined as 187 mg/kg; in series [2] (setting [14]) it was 187 mg/kg; in series [2] (setting [11]) it was 166 mg/kg; in series [3], 125 mg/kg; in series [4], 268 mg/kg; in series [5] (setting [15]), 120 mg/kg. In addition, the “Therapeutic coefficient iv. 2/3” value in series [2] (iv) is given as 1.9. Also, the “Ratio 3/2” value in series [5] came to 1.6.

Turning to `O=C(N[C@@H](Cc1c[nH]c2ccccc12)C(=O)O)c1ccc(Cl)cc1` [CR 501 aluminium salt, N-p-chloro-benzoyl-L-tryptophane aluminium salt], in series [5] (setting [16]), the “Antispastic activity ED50” value is recorded as 270 mg/kg. For the same compound, the “Antisecretive activity (dose which reduces the gastric secretion by 50%)” value in series [6] (oral, 2.5 hrs, 150 min) is given as 195 mg/kg; in series [6] (oral, 5 hrs, 300 min), 152 mg/kg; in series [6] (oral, 10 hrs, 600 min), 150 mg/kg; in series [6] (oral, 15 hrs, 900 min), 163 mg/kg. Further, the “Protective activity ED50” value in series [7] (setting [13]) stood at 174 mg/kg/os. Also, in series [8] (listed as Example 56), the Solubility in ethanol result is “Soluble”. Besides, the Solubility in methanol entry in series [8] (listed as Example 56) is given as “Soluble”. For the same compound, the Solubility in water entry in series [8] (water, listed as Example 56) is reported as “very slightly soluble”.

For the compound `O=C(N[C@@H](Cc1c[nH]c2ccccc12)C(=O)O)c1ccc(Cl)cc1` [CR 501 magnesium salt, N-p-chloro-benzoyl-L-tryptophane magnesium salt], the “Antispastic activity ED50” value in series [5] (setting [16]) is given as 278 mg/kg. For the same compound, the “Antisecretive activity (dose which reduces the gastric secretion by 50%)” value is listed as 230 mg/kg in series [6] (oral, 2.5 hrs, 150 min); 180 mg/kg in series [6] (oral, 5 hrs, 300 min); 146 mg/kg in series [6] (oral, 10 hrs, 600 min); 135 mg/kg in series [6] (oral, 15 hrs, 900 min). The “Protective activity ED50” value in series [7] (setting [13]) came out at 162 mg/kg/os. Further, the Solubility in ethanol result in series [8] (listed as Example 55) is “soluble”. Besides, in series [8] (listed as Example 55), the Solubility in methanol entry is recorded as “soluble”. In addition, in series [8] (water, listed as Example 55), the Solubility in water result is “Very slightly soluble”.

`COc1ccc(COC(=O)N[C@@H](Cc2c[nH]c3ccccc23)C(=O)O)cc1` [Ex.32 (CR462), N-p-methoxy-carbobenzoxy-L-tryptophane]: in series [1] (setting [9]), the LD50 turned out to be 430 mg/kg. Moreover, the ED50 in series [2] (Rattus norvegicus, iv, i.v. (Table 2), read-out: Anti-secretive activity ED50 i.v.) was determined as 133 mg/kg; in series [2] (rat with lig. pylorus, iv (Table 1), read-out: Activity A: anti-secretive activity ED50), 146 mg/kg; in series [3], 114 mg/kg; in series [4] it was 142 mg/kg. The “Therapeutic coefficient iv. 2/3” value in series [2] (iv) came out at 3.2.

Regarding `O=C(N[C@@H](Cc1c[nH]c2ccccc12)C(=O)O)OCc1ccc(Cl)cc1` [CR 449 calcium salt, N-p-chloro-carbobenzoxy-L-tryptophane calcium salt], the “Antisecretive activity (dose which reduces the gastric secretion by 50%)” value in series [6] (oral, 2.5 hrs, calcium salt, 150 min) turned out to be 142 mg/kg; in series [6] (oral, 5 hrs, calcium salt, 300 min) it was 112 mg/kg; in series [6] (oral, 10 hrs, calcium salt, 600 min) it was 110 mg/kg; in series [6] (oral, 15 hrs, calcium salt, 900 min), 106 mg/kg. Besides, the “Protective activity ED50” value in series [7] (oral, Indomethacin 16 mg/kg orally, calcium salt) came out at 121 mg/kg/os. Moreover, in series [8], the Solubility in ethanol result is given as “soluble”. Moreover, in series [8], the Solubility in methanol result is “soluble”. The Solubility in water entry in series [8] (water) was “Very slightly soluble”.

Turning to `O=C(N[C@@H](Cc1c[nH]c2ccccc12)C(=O)O)OCc1ccc(Cl)cc1` [Ex. 1 (CR449), N-p-chloro-carbobenzoxy-L-tryptophane], the LD50 is 240 mg/kg in series [1] (setting [9]) and 1410 mg/kg in series [1] (po, oral (Table 2), read-out: DL50 oral). The ED50 in series [2] (setting [10]) came out at 131 mg/kg; in series [2] (setting [14]), 131 mg/kg; in series [2] (setting [11]), 131 mg/kg; in series [3] it was 127 mg/kg; in series [4] it was 154 mg/kg; in series [5] (setting [15]), 72 mg/kg. Besides, the ED50 in series [6] (2.5 h, oral, 2.5 hrs) worked out at 121 mg/kg; in series [6] (5 h, oral, 5 hrs), 98 mg/kg; in series [6] (10 h, oral, 10 hrs) it was 115 mg/kg; in series [6] (15 h, oral, 15 hrs), 155 mg/kg; in series [7] (setting [13]), 182 mg/kg. Besides, in series [2] (iv), the “Therapeutic coefficient iv. 2/3” value is given as 1.8. In series [4], this compound showed a Therapeutic coefficient oral of 9.1. For the same compound, in series [5], the “Ratio 3/2” value came to 1.8.
